Reference: patent US8394592B2, “Methods for assessing cancer susceptibility to carcinogens in tobacco products” (The Board of Regents of the University of Texas System, priority 2006, dated 2013)

System: peripheral blood lymphocytes
Assay: Cytokinesis-block micronucleus (CBMN) assay, NNK-treated lymphocyte cultures of lung cancer cases and controls
Format: cell-based, human
Conditions: 0.24 mM NNK
Experimental: The CBMN test was performed using the cytochalasin B technique described by Fenech and Morley (22) and following recommendations from The International Collaborative Project on Micronucleus Frequency in Human Populations (HUMN Project) to measure MN, NPBs and NBUDs in untreated cells and NNK-treated cells (27). Duplicate lymphocyte cultures were prepared for each study subject. Each culture contained 2.0×10^6 cells in 5 mL RPMI 1640 medium supplemented with 100 U/mL penicillin, 100 μg/mL streptomycin, 10% fetal bovine serum, and 2 mM L-glutamine (Gibco-Invitrogen, Carlsbad, Calif.) and 1% phytohemagglutinin (Remel, Lenexa, Kans.). For the cultures treated with NNK, 24 hours after initiation, the PBLs were centrifuged and the supernatant growth medium was removed and reserved. The PBLs were resuspended in 5 mL of serum-free RPMI 1640 medium supplemented with 0.24 mM NNK (a dose previously used by us and others (23-26) (CAS No. 64091-91-4, National Cancer Institute, Midwest Carcinogen Repository, Kansas City, Mo.; purity>98%) and incubated at 37° C. in the presence of 5% CO2 for 2 hours.
Next, the PBLs were washed twice with serum-free RPMI 1640, transferred to clean tubes and re-incubated for […] in the reserved supernatant. At 44 hours after initiation, cells were blocked in cytokinesis by adding cytochalasin B (Sigma, St. Louis, Mo.; final concentration 4 µg/mL). Similarly, cultures for the determination of spontaneous damage (untreated cells) were handled in the same manner, with the exception of treatment with NNK. The total incubation time for all cultures was 72 hours. After incubation, the cells were fixed in 3:1 methanol:glacial acetic acid, dropped onto clean microscopic slides, air-dried and stained with Giemsa stain. For each sample, 1000 binucleated cells were scored blindly using a Nikon E-400 light optical microscope following the scoring criteria outlined by HUMN Project (2,22,27); the numbers of MN, NPBs, and NBUDs per 1000 binucleated cells were recorded. For quality control, 20% of the slides were randomly selected and blindly rescored and the results compared with the original scoring.

[1] = Case, History of Alcohol Use No
[2] = Case, History of Alcohol Use Yes

In the case of `CN(CCCC(=O)c1cccnc1)N=O` [NNK, 4-(methylnitrosamino)-1-(3-pyridyl)-1-butanone], the “NNK-induced MN, Mean ± SE” value (Case, Age > 62) is reported as 4.54 ± 0.22 per 1000 binucleated cells, the “NNK-induced MN, Median” value (Case, Age > 62) is reported as 4.0 per 1000 binucleated cells and the “NNK-induced NBUDs, Mean ± SE” value (Case, Age > 62) is reported as 0.90 ± 0.17 per 1000 binucleated cells. For the same compound, the “NNK-induced NBUDs, Median” value (Case, Age > 62) was 1.0 per 1000 binucleated cells, the “NNK-induced NPBs, Mean ± SE” value (Case, Age > 62) was 8.15 ± 0.33 per 1000 binucleated cells and the “NNK-induced NPBs, Median” value (Case, Age > 62) was 8.0 per 1000 binucleated cells. For the same compound, the “NNK-induced MN, Mean ± SE” value (Case, Age ≦ 62) was 4.22 ± 0.11 per 1000 binucleated cells, the “NNK-induced MN, Median” value (Case, Age ≦ 62) was 4.0 per 1000 binucleated cells and the “NNK-induced NBUDs, Mean ± SE” value (Case, Age ≦ 62) was 1.12 ± 0.11 per 1000 binucleated cells. For the same compound, the “NNK-induced NBUDs, Median” value (Case, Age ≦ 62) was 1.0 per 1000 binucleated cells, the “NNK-induced NPBs, Mean ± SE” value (Case, Age ≦ 62) was 8.11 ± 0.23 per 1000 binucleated cells and the “NNK-induced NPBs, Median” value (Case, Age ≦ 62) was 8.0 per 1000 binucleated cells. For the same compound, the “NNK-induced MN, Mean ± SE” value (Case, Females) was 4.19 ± 0.17 per 1000 binucleated cells, the “NNK-induced MN, Median” value (Case, Females) was 4.0 per 1000 binucleated cells and the “NNK-induced NBUDs, Mean ± SE” value (Case, Females) was 1.07 ± 0.12 per 1000 binucleated cells. The “NNK-induced NBUDs, Median” value (Case, Females) was 1.0 per 1000 binucleated cells, the “NNK-induced NPBs, Mean ± SE” value (Case, Females) was 8.24 ± 0.32 per 1000 binucleated cells and the “NNK-induced NPBs, Median” value (Case, Females) was 8.0 per 1000 binucleated cells. For the same compound, the “NNK-induced MN, Mean ± SE” value [1] was 4.26 ± 0.14 per 1000 binucleated cells, the “NNK-induced MN, Median” value [1] was 4.00 per 1000 binucleated cells and the “NNK-induced NBUDs, Mean ± SE” value [1] was 1.09 ± 0.18 per 1000 binucleated cells. The “NNK-induced NBUDs, Median” value [1] was 1.00 per 1000 binucleated cells, the “NNK-induced NPBs, Mean ± SE” value [1] was 8.04 ± 0.32 per 1000 binucleated cells and the “NNK-induced NPBs, Median” value [1] was 8.00 per 1000 binucleated cells. For the same compound, the “NNK-induced MN, Mean ± SE” value [2] was 4.37 ± 0.14 per 1000 binucleated cells, the “NNK-induced MN, Median” value [2] was 4.00 per 1000 binucleated cells and the “NNK-induced NBUDs, Mean ± SE” value [2] was 1.04 ± 0.11 per 1000 binucleated cells. For the same compound, the “NNK-induced NBUDs, Median” value [2] was 1.00 per 1000 binucleated cells, the “NNK-induced NPBs, Mean ± SE” value [2] was 8.14 ± 0.24 per 1000 binucleated cells and the “NNK-induced NPBs, Median” value [2] was 8.00 per 1000 binucleated cells. For the same compound, the “NNK-induced MN, Mean ± SE” value (Case, Males) was 4.37 ± 0.13 per 1000 binucleated cells, the “NNK-induced MN, Median” value (Case, Males) was 4.0 per 1000 binucleated cells and the “NNK-induced NBUDs, Mean ± SE” value (Case, Males) was 1.07 ± 0.11 per 1000 binucleated cells. The “NNK-induced NBUDs, Median” value (Case, Males) was 1.0 per 1000 binucleated cells, the “NNK-induced NPBs, Mean ± SE” value (Case, Males) was 8.07 ± 0.23 per 1000 binucleated cells and the “NNK-induced NPBs, Median” value (Case, Males) was 8.0 per 1000 binucleated cells. For the same compound, the “NNK-induced MN, Mean ± SE” value (Case, Overall) was 4.32±0.10 per 1000 binucleated cells, the “NNK-induced MN, Median” value (Case, Overall) was 4.0 per 1000 binucleated cells and the “NNK-induced NBUDs, Mean ± SE” value (Case, Overall) was 1.07±0.09 per 1000 binucleated cells. The “NNK-induced NBUDs, Median” value (Case, Overall) was 1.0 per 1000 binucleated cells, the “NNK-induced NPBs, Mean ± SE” value (Case, Overall) was 8.12±0.19 per 1000 binucleated cells and the “NNK-induced NPBs, Median” value (Case, Overall) was 8.0 per 1000 binucleated cells. For the same compound, the “NNK-induced MN, Mean ± SE” value (Case, Years smoked > 32) was 4.33 ± 0.10 per 1000 binucleated cells, the “NNK-induced MN, Median” value (Case, Years smoked > 32) was 4.0 per 1000 binucleated cells and the “NNK-induced NBUDs, Mean ± SE” value (Case, Years smoked > 32) was 1.08 ± 0.01 per 1000 binucleated cells. For the same compound, the “NNK-induced NBUDs, Median” value (Case, Years smoked > 32) was 1.0 per 1000 binucleated cells, the “NNK-induced NPBs, Mean ± SE” value (Case, Years smoked > 32) was 8.07 ± 0.19 per 1000 binucleated cells and the “NNK-induced NPBs, Median” value (Case, Years smoked > 32) was 8.0 per 1000 binucleated cells. For the same compound, the “NNK-induced MN, Mean ± SE” value (Case, Years smoked ≦ 32) was 3.63 ± 0.32 per 1000 binucleated cells, the “NNK-induced MN, Median” value (Case, Years smoked ≦ 32) was 4.0 per 1000 binucleated cells and the “NNK-induced NBUDs, Mean ± SE” value (Case, Years smoked ≦ 32) was 1.13 ± 0.44 per 1000 binucleated cells. For the same compound, the “NNK-induced NBUDs, Median” value (Case, Years smoked ≦ 32) was 1.0 per 1000 binucleated cells, the “NNK-induced NPBs, Mean ± SE” value (Case, Years smoked ≦ 32) was 9.25 ± 0.96 per 1000 binucleated cells and the “NNK-induced NPBs, Median” value (Case, Years smoked ≦ 32) was 8.3 per 1000 binucleated cells. For the same compound, the “NNK-induced MN, Mean ± SE” value (Control, Age > 62) was 2.75 ± 0.15 per 1000 binucleated cells, the “NNK-induced MN, Median” value (Control, Age > 62) was 3.0 per 1000 binucleated cells and the “NNK-induced NBUDs, Mean ± SE” value (Control, Age > 62) was 0.10 ± 0.05 per 1000 binucleated cells. The “NNK-induced NBUDs, Median” value (Control, Age > 62) was 0.0 per 1000 binucleated cells, the “NNK-induced NPBs, Mean ± SE” value (Control, Age > 62) was 2.35 ± 0.14 per 1000 binucleated cells and the “NNK-induced NPBs, Median” value (Control, Age > 62) was 2.0 per 1000 binucleated cells. For the same compound, the “NNK-induced MN, Mean ± SE” value (Control, Age ≦ 62) was 2.58 ± 0.14 per 1000 binucleated cells, the “NNK-induced MN, Median” value (Control, Age ≦ 62) was 2.0 per 1000 binucleated cells and the “NNK-induced NBUDs, Mean ± SE” value (Control, Age ≦ 62) was 0.13 ± 0.04 per 1000 binucleated cells. The “NNK-induced NBUDs, Median” value (Control, Age ≦ 62) was 0.0 per 1000 binucleated cells, the “NNK-induced NPBs, Mean ± SE” value (Control, Age ≦ 62) was 2.41 ± 0.11 per 1000 binucleated cells and the “NNK-induced NPBs, Median” value (Control, Age ≦ 62) was 2.0 per 1000 binucleated cells. The “NNK-induced MN, Mean ± SE” value (Control, Females) was 2.51 ± 0.23 per 1000 binucleated cells, the “NNK-induced MN, Median” value (Control, Females) was 2.0 per 1000 binucleated cells and the “NNK-induced NBUDs, Mean ± SE” value (Control, Females) was 0.11 ± 0.05 per 1000 binucleated cells. For the same compound, the “NNK-induced NBUDs, Median” value (Control, Females) was 1.0 per 1000 binucleated cells.
